From article PMC5429796, “Engineered P450 biocatalysts show improved activity and regio-promiscuity in aromatic nitration” (Scientific Reports, 2017)

Assays:
[1] = biological target: T1, TB14 (UniProt C9ZDC6+P14779); assay: Nitration of Trp analogues by TB14 (HPLC, 45 min); assay type: biochemical; details: for nitrated a significant amount by TB14: after 45 mins, 0.5 mM substrate, 1.5 µM P450
T1 construct: BM3R: reductase domain of CYP102A1 (P450BM3); made in house; host or cells: E. coli BL21-GOLD (DE3), pET28b-TxtE-BM3R
Method: (§1) The reactions were prepared as described previously and incubated at 20 °C, 300 rpm for 45 minutes. All experiments were repeated at least three times.
(§2) After centrifugation, 10 μl solutions were analyzed by HPLC. […] All reactions were independently repeated at least three times. In TTN and coupling efficiency studies, 0.5 µM P450s and 0.5 mM substrate were used. […] All experiments were performed at least in triplication.

[2] = biological target: T1, TB14; assay: Binding affinities of Trp analogues toward TB14 (spectral shift); details: for Kd: read-out: TB14 Kd, 1.5 µM enzyme, 25 mM Tris-HCl pH 8.0
Method: (§3) The ferric heme of enzymes was then saturated by bubbling carbon monoxide (Airgas) and the spectra of the saturated enzyme solutions were recorded. Sodium dithionite solution (30 μL, 0.5 M) was then added to reduce ferric ion, and reduced spectra were taken subsequently. CO reduced difference spectra of all P450s were created by […]. Data were further analyzed by Excel. […] The changes in absorbance (ΔA) were determined by subtracting the absorbance at ~420 nm from that at ~390 nm. Data were then fitted to the equation of ΔA = ΔAmax[L]/(Kd + [L]) using GraphPad Prism 4.
(§4) in 25 mM Tris-HCl, pH 8.0. All experiments were repeated at least three times. […]

[3] = biological target: T2, TxtE (Streptomyces scabiei, UniProt C9ZDC6); assay: UV-Vis difference spectroscopy (Type I shift) titration of Trp analogues to 1.5 µM purified P450 in 25 mM Tris-HCl, pH 8.0, fitted to Michaelis-Menten type equation; at least three repeats.; assay type: binding; details: n = 3
T2 construct: wild type, pET28b construct, Ni-NTA purified
T2 sequence (C9ZDC6 1-406): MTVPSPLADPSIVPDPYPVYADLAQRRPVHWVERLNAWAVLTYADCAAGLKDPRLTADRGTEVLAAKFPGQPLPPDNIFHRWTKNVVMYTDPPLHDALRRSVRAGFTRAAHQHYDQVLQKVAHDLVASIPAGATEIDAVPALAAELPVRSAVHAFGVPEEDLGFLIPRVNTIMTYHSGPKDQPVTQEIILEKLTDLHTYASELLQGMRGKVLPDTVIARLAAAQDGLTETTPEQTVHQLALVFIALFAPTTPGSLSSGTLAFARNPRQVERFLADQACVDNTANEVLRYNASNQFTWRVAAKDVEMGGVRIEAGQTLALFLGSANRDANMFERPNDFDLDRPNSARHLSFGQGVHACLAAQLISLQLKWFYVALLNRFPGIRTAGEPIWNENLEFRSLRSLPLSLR
Method: as §3
(§5) in 25 mM Tris-HCl, pH 8.0. All experiments were repeated at least three times. Data
(§6) were fitted to the Michaelis-Menten equation.

[4] = biological target: T3, TB14 (UniProt C9ZDC6); assay: Binding affinities of Trp analogues toward TB14 (spectral shift); details: 1.5 µM enzyme, 25 mM Tris-HCl pH 8.0
T3 construct: BM3R: reductase domain of CYP102A1 (P450BM3); made in house; host or cells: E. coli BL21-GOLD (DE3), pET28b-TxtE-BM3R
Method: as §3, §4

[5] = biological target: T4, TxtE (Streptomyces scabiei, UniProt C9ZDC6); assay: biochemical; assay type: binding, Streptomyces scabies; design: made in house; host or cells: E. coli BL21-GOLD (DE3), pET28b
Method: as §3, §5, §6

[6] = biological target: T4, TxtE; assay type: biochemical, Streptomyces scabies; design: made in house; details: for nitrated a significant amount by TxtE: after 45 mins, 0.5 mM substrate, 1.5 µM P450
Method: as §1, §2

[7] = biological target: T1, TB14; assay: Scaled-up TB14 nitration of 4-Me-DL-Trp (Marfey's derivatization, NMR); assay type: biochemical; details: scaled-up reaction with 4-Me-DL-Trp
Method: The reactions in a 200-ml flask were incubated at 20 °C, 250 rpm overnight, and then terminated by 20 mL methanol or acidification to pH 1.0 with 6 M HCl. After centrifugation, the supernatants were concentrated in vacuo and then freeze-dried. The products were redissolved in 3 ml methanol for semi-preparation[22].
4-Me-Trp and nitrated 4-Me-Trp from enzyme reactions were reacted with Marfey’s reagent following manufacture manual (Thermo Scientific). Derivatized products were analyzed by LC-MS with A SHIMADZU Prominence UPLC system fitted with a Waters SymmetryShieldTM RP-C18 column (3.5 µm, 4.6 × 100 mm) and a Linear Ion Trap Quadrupole LC/MS/MS Mass Spectrometer system. The flow rate was 0.5 mL/min. The column was eluted with 90% solvent A (0.05 M triethylammonium acetate, pH 3.0), 10% solvent B (acetonitrile) for 2 min and then with a linear gradient of 10–50% solvent B for 60 min. The column was then cleaned by 50% solvent B for 5 min followed by a re-equilibration with 10% solvent B for 2 min. For MS detection, the turbo spray conditions used were: curtain gas: 30 psi; ion spray voltage: 5000 V; temperature: 550 °C; ion source gas 1: 30 psi; ion source gas 2: 20 psi.

[8] = biological target: TB27; assay: UV-Vis difference spectroscopy (Type I shift, ΔA ~390 minus ~420 nm) titration of Trp to 1.5 µM purified P450 in 25 mM Tris-HCl, pH 8.0, hyperbolic fit; at least three repeats.; assay type: binding; details: n = 3
Method: (§7) We next determined coupling efficiency to evaluate the extent to which linker length and structural swapping may affect electron transfer compatibility during nitration reaction (Table 1). […] Additionally, we determined total turnover number (TTN) as nmol product per nmol P450 in all reactions (Table 1).
as §3

[9] = biological target: TB17; assay: as above; assay type: binding; details: n = 3
Method: as §7, §3

[10] = biological target: TB13-Q; assay: as above; assay type: binding; details: n = 3
Method: as §7, §3

[11] = biological target: TB13S; assay: as above; assay type: binding; details: n = 3
Method: as §7, §3

[12] = biological target: TB19; assay: as above; assay type: binding; details: n = 3
Method: as §7, §3

[13] = biological target: TB13; assay: as above; assay type: binding; details: n = 3
Method: as §7, §3

[14] = biological target: TB15; assay: as above; assay type: binding; details: n = 3
Method: as §7, §3

[15] = biological target: TB12; assay: as above; assay type: binding; details: n = 3
Method: as §7, §3

[16] = biological target: TB24; assay: as above; assay type: binding; details: n = 3
Method: as §7, §3

[17] = biological target: TB22; assay: as above; assay type: binding; details: n = 3
Method: as §7, §3

[18] = biological target: TB16; assay: as above; assay type: binding; details: n = 3
Method: as §7, §3

[19] = biological target: TB11; assay: as above; assay type: binding; details: n = 3
Method: as §7, §3

[20] = read-out: TxtE Kd (µM), TB14 Kd

## COc1ccc2[nH]cc(CC(N)C(=O)O)c2c1 (centres unmarked) [5-MeO-Trp]
[1]
  nitrated a significant amount by TB14: not
[2]
  Kd: 26 ± 2 µM

## Cc1ccc2[nH]cc(CC(N)C(=O)O)c2c1 (racemic) [5-Me-Trp, 5-methyl-DL-tryptophan]
[3]; [20]
  Kd: 35 µM

## N[C@H](Cc1c[nH]c2ccccc12)C(=O)O [D-Trp, D-tryptophan]
[3]; [20]
  Kd: 430 µM

## N[C@@H](Cc1c[nH]c2ccc(O)cc12)C(=O)O [5-OH-L-Trp, 5-hydroxy-L-tryptophan]
[3]; [20]
  Kd: 340 µM

## NCCc1c[nH]c2ccccc12 [Tryptamine]
[4]
  Kd: 60 ± 8 µM
[5]
  Kd: 68 ± 6 µM

## Cc1ccc2[nH]cc(CC(N)C(=O)O)c2c1 (centres unmarked) [5-Me-Trp]
[6]
  nitrated a significant amount by TxtE: nitrated a significant amount
[1]
  nitrated a significant amount by TB14: nitrated a significant amount
[2]
  Kd: 30 ± 1 µM

## Cc1cccc2[nH]cc(C[C@H](N)C(=O)O)c12 [4-Me-L-Trp]
[7]
  consumption of substrate in the TB14 reaction: ~ 85%

## N[C@@H](Cc1c[nH]c2ccccc12)C(=O)O [Trp, L-tryptophan]
[8]
  Kd: 16.2 ± 1.1 µM
[9]
  Kd: 15.5 ± 0.6 µM
[10]
  Kd: 21.5 ± 0.8 µM
[11]
  Kd: 19.3 ± 0.6 µM
[12]
  Kd: 16 ± 0.8 µM
[13]
  Kd: 21.3 ± 0.4 µM
[14]
  Kd: 21.4 ± 0.9 µM
[15]
  Kd: 22.3 ± 1.4 µM
[16]
  Kd: 14.9 ± 0.3 µM
[17]
  Kd: 27.1 ± 1.3 µM
[18]
  Kd: 18.9 ± 1 µM
[19]
  Kd: 16.2 ± 0.6 µM

## NC(Cc1c[nH]c2cc(F)ccc12)C(=O)O (racemic) [6-F-Trp, 6-fluoro-DL-tryptophan]
[3]
  Kd: 73 µM

## N[C@@H](Cc1c[nH]c2ccccc12)C(=O)O [L-Trp, L-tryptophan]
[4]
  Kd: 17 ± 1 µM
[5]
  Kd: 25 ± 1 µM

## COc1ccc2[nH]cc(CC(N)C(=O)O)c2c1 (racemic) [5-MeO-Trp, 5-methoxy-DL-tryptophan]
[3]; [20]
  Kd: 29 µM

## O=C(O)C1Cc2c([nH]c3ccccc23)CN1 (stereo not drawn) [2,3,4,9-tetrahydro-1H-β-carboline-3-carboxylate]
[3]; [20]
  Kd: 580 µM

## Cc1cccc2[nH]cc(CC(N)C(=O)O)c12 (racemic) [4-Me-Trp, 4-methyl-DL-tryptophan]
[3]
  Kd: 10 µM

## N[C@@H](Cc1c[nH]c2ccc(F)cc12)C(=O)O [5-F-L-Trp]
[6]; 45 min
  substrate ranking in the TxtE reaction: best substrate of TxtE
[6]
  nitrated a significant amount by TxtE: nitrated a significant amount
[1]; 45 min
  substrate ranking in the TB14 reaction: comparable to Trp as the best
[1]
  nitrated a significant amount by TB14: nitrated a significant amount
[2]
  Kd: 78 ± 6 µM

## N[C@H](CO)Cc1c[nH]c2ccccc12 [L-tryptophanol]
[3]; [20]
  Kd: 220 µM
[2]
  Kd: 280 ± 43 µM

## NCCc1c[nH]c2ccc(O)cc12 [Serotonin]
[4]
  Kd: 310 ± 39 µM
[5]
  Kd: 320 ± 31 µM

## Cc1cccc2[nH]cc(CC(N)C(=O)O)c12 (racemic) [4-Me-Trp, 4-Me-DL-Tryptophan]
[6]
  nitrated a significant amount by TxtE: nitrated a significant amount
[1]; 45 min, Fig. 3
  nitration by TB14, times favoured over 4-F-DL-Trp: about 8 times
[1]
  nitrated a significant amount by TB14: nitrated a significant amount
[2]; from Table S1
  binding affinity, times higher than 4-F-DL-Trp: 13 times
[2]
  Kd: 14 ± 1 µM

## O=C(O)C(=O)Cc1c[nH]c2ccccc12 [Indole-3-pyruvic acid]
[4]
  Kd: 480 ± 32 µM
[5]
  Kd: 390 ± 43 µM

## N[C@@H](Cc1c[nH]c2ccc(F)cc12)C(=O)O [5-F-L-Trp, 5-fluoro-L-tryptophan]
[3]
  Kd: 84 µM

## O=C(O)C1Cc2c([nH]c3ccccc23)CN1 (stereo not drawn) [2,3,4,9-Tetrahydro-1H-β-carboline-3-carboxynate]
[2]
  Kd: 730 ± 86 µM

## N[C@@H](Cc1c[nH]c2cc(F)ccc12)C(=O)O [6-F-Trp]
[6]
  nitrated a significant amount by TxtE: nitrated a significant amount
[1]
  nitrated a significant amount by TB14: nitrated a significant amount
[2]
  Kd: 65 ± 5 µM

## N[C@H](Cc1c[nH]c2ccccc12)C(=O)O [D-Trp]
[2]
  Kd: 470 ± 25 µM

## NC(Cc1c[nH]c2cccc(F)c12)C(=O)O (centres unmarked) [4-F-Trp]
[1]
  nitrated a significant amount by TB14: not
[2]
  Kd: 180 ± 13 µM

## Cc1cccc2c(CC(N)C(=O)O)c[nH]c12 (centres unmarked) [7-Me-Trp]
[1]
  nitrated a significant amount by TB14: not
[2]
  Kd: 11 ± 1 µM

## NC(Cc1c[nH]c2cccc(F)c12)C(=O)O (racemic) [4-F-Trp, 4-fluoro-DL-tryptophan]
[3]
  Kd: 190 µM

## c1ccc2[nH]ccc2c1 [indole]
[2]
  interaction with TB14 in spectroscopic analysis (Type I spectral shift): no detectable level of interaction
[5]
  interaction with TxtE in spectroscopic analysis: no detectable level of interaction

## CC(N)(Cc1c[nH]c2ccccc12)C(=O)O (stereo not drawn) [α-Me-Trp]
[1]
  nitrated a significant amount by TB14: not
[2]
  Kd: 95 ± 9 µM
[5]; read-out: TxtE Kd, 1.5 µM enzyme, 25 mM Tris-HCl pH 8.0
  Kd: 100 ± 4 µM

## N[C@@H](Cc1c[nH]c2ccc(O)cc12)C(=O)O [5-OH-L-Trp]
[2]
  Kd: 450 ± 16 µM

## Cc1cccc2c(CC(N)C(=O)O)c[nH]c12 (racemic) [7-Me-Trp, 7-methyl-DL-tryptophan]
[3]; [20]
  Kd: 13 µM

## N[C@@H](Cc1c[nH]c2ncccc12)C(=O)O [7-Azatryptophan]
[4]
  Kd: 26 ± 1 µM
[5]
  Kd: 17 ± 1 µM
